Laboratory results as given in patent US8802597B2, “Herbicidal pyrimidines” (E I du Pont de Nemours and Company, priority 2003, dated 2014).
Where two headings read alike, the source gives them in different places.

Experiments:
Experiment in all cases: Test C pre/postemergence
Assay type in all cases: in vivo
[1] = test system: Surinam grass (Brachiaria decumbens); conditions: Urochloa decumbens; for pest or weed control at 31 g/ha: 31 g ai/ha; for pest or weed control at 62 g/ha: 62 g ai/ha
Outline: (§1)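 Pre: seeds planted, sprayed same day. Post: 1- to 4-leaf plants (2–18 cm). Formulation: non-phytotoxic solvent + surfactant. Greenhouse 12–14 d; visual % control vs untreated, 0–100.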

[2] = test system: cocklebur (Xanthium strumarium); conditions: Xanthium strumarium; for pest or weed control at 31 g/ha: 31 g ai/ha; for pest or weed control at 62 g/ha: 62 g ai/ha; for pest or weed control at 125 g/ha: 125 g ai/ha
Outline: as §1

[3] = test system: common (oilseed) sunflower (Helianthus annuus); conditions: Helianthus annuus, pre-emergence, Preemergence, scale 0 to 100, 0 no effect, 100 complete control, read-out: Plant response rating, Sunflower
Outline: as §1

[4] = test system: common ragweed (Ambrosia elatior); conditions: Ambrosia artemisiifolia; for pest or weed control at 31 g/ha: 31 g ai/ha; for pest or weed control at 62 g/ha: 62 g ai/ha
Outline: as §1

corn (Zea mays) = conditions: Zea mays; for Corn plant response rating (crop injury, 0 = no effect, 100 = complete kill) at 31 g/ha: 31 g ai/ha; for Corn plant response rating (crop injury, 0 = no effect, 100 = complete kill) at 62 g/ha: 62 g ai/ha; for Corn plant response rating (crop injury, 0 = no effect, 100 = complete kill) at 125 g/ha: 125 g ai/ha
Outline: as §1

[5] = test system: crabgrass (Digitaria sanguinalis); conditions: Digitaria sanguinalis; for pest or weed control at 31 g/ha: 31 g ai/ha; for pest or weed control at 62 g/ha: 62 g ai/ha; for pest or weed control at 125 g/ha: 125 g ai/ha
Outline: as §1

[6] = test system: goosegrass (Eleusine indica); conditions: Eleusine indica, post-emergence, Postemergence, read-out: Plant response rating (scale of 0 to 100), Goosegrass
Outline: as §1

[7] = post-emergence, Postemergence, read-out: Plant response rating (scale of 0 to 100), Surinam Grass
[8] = pre-emergence, Preemergence, scale 0 to 100, 0 no effect, 100 complete control, read-out: Plant response rating, Surinam Grass
[9] = post-emergence, Postemergence, read-out: Plant response rating (scale of 0 to 100), Cocklebur
[10] = pre-emergence, Preemergence, scale 0 to 100, 0 no effect, 100 complete control, read-out: Plant response rating, Cocklebur
[11] = post-emergence, Postemergence, read-out: Plant response rating (scale of 0 to 100), Ragweed
[12] = pre-emergence, Preemergence, scale 0 to 100, 0 no effect, 100 complete control, read-out: Plant response rating, Ragweed
[13] = post-emergence, Postemergence, read-out: Plant response rating (scale of 0 to 100), Corn
[14] = pre-emergence, Preemergence, scale 0 to 100, 0 no effect, 100 complete control, read-out: Plant response rating, Corn
[15] = post-emergence, Postemergence, read-out: Plant response rating (scale of 0 to 100), Crabgrass
[16] = pre-emergence, Preemergence, scale 0 to 100, 0 no effect, 100 complete control, read-out: Plant response rating, Crabgrass

Nc1nc(C2CC2)nc(C(=O)OCc2ccccc2)c1Cl [Compound 78, phenylmethyl 6-amino-5-chloro-2-cyclopropyl-4-pyrimidinecarboxylate]
pest or weed control at 125 g/ha ([1]; post-emergence, Postemergence, 125 g ai/ha, scale 0 to 100 (0 no effect, 100 complete control), read-out: Surinam Grass plant response rating): 55%
pest or weed control at 31 g/ha [1, 7]: 50%
pest or weed control at 62 g/ha [1, 7]: 55%
pest or weed control at 250 g/ha ([1]; post-emergence, Postemergence, 250 g ai/ha, scale 0 to 100, read-out: Plant response rating, Surinam Grass): 90%
pest or weed control at 16 g/ha ([1]; pre-emergence, Preemergence, 16 g ai/ha, scale 0 to 100, 0 no effect, 100 complete control, read-out: Plant response rating, Surinam Grass): 0%
pest or weed control at 31 g/ha [1, 8]: 0%
pest or weed control at 62 g/ha [1, 8]: 0%
pest or weed control at 31 g/ha [2, 9]: 90%
pest or weed control at 62 g/ha [2, 9]: 100%
pest or weed control at 125 g/ha ([2]; post-emergence, Postemergence, scale 0 to 100 (0 no effect, 100 complete control), read-out: Cocklebur plant response rating): 100%
pest or weed control at 250 g/ha ([2]; post-emergence, Postemergence, 250 g ai/ha, scale 0 to 100, read-out: Plant response rating, Cocklebur): 100%
pest or weed control at 16 g/ha ([2]; pre-emergence, Preemergence, 16 g ai/ha, scale 0 to 100, 0 no effect, 100 complete control, read-out: Plant response rating, Cocklebur): 55%
pest or weed control at 31 g/ha [2, 10]: 70%
pest or weed control at 62 g/ha [2, 10]: 90%
pest or weed control at 125 g/ha ([2]; pre-emergence, Preemergence, scale 0 to 100, read-out: Plant response rating, Cocklebur): 90%
pest or weed control at 16 g/ha ([3]; 16 g ai/ha): 50%
pest or weed control at 31 g/ha ([3]; 31 g ai/ha): 70%
pest or weed control at 62 g/ha ([3]; 62 g ai/ha): 100%
pest or weed control at 31 g/ha [4, 11]: 70%
pest or weed control at 62 g/ha [4, 11]: 85%
pest or weed control at 125 g/ha ([4]; post-emergence, Postemergence, 125 g ai/ha, scale 0 to 100 (0 no effect, 100 complete control), read-out: Ragweed plant response rating): 95%
pest or weed control at 250 g/ha ([4]; post-emergence, Postemergence, 250 g ai/ha, scale 0 to 100, read-out: Plant response rating, Ragweed): 100%
pest or weed control at 16 g/ha ([4]; pre-emergence, Preemergence, 16 g ai/ha, scale 0 to 100, 0 no effect, 100 complete control, read-out: Plant response rating, Ragweed): 10%
pest or weed control at 31 g/ha [4, 12]: 65%
pest or weed control at 62 g/ha [4, 12]: 80%
Corn plant response rating (crop injury, 0 = no effect, 100 = complete kill) at 31 g/ha (corn (Zea mays); [13]): 40%
Corn plant response rating (crop injury, 0 = no effect, 100 = complete kill) at 62 g/ha (corn (Zea mays); [13]): 40%
Corn plant response rating (crop injury, 0 = no effect, 100 = complete kill) at 125 g/ha (corn (Zea mays); post-emergence, Postemergence, scale 0 to 100 (0 no effect, 100 complete control), read-out: Corn plant response rating): 40%
Corn plant response rating (crop injury, 0 = no effect, 100 = complete kill) at 250 g/ha (corn (Zea mays); post-emergence, Postemergence, 250 g ai/ha, scale 0 to 100): 40%
Corn plant response rating (crop injury, 0 = no effect, 100 = complete kill) at 16 g/ha (corn (Zea mays); pre-emergence, Preemergence, 16 g ai/ha, scale 0 to 100, 0 no effect, 100 complete control, read-out: Plant response rating, Corn): 0%
Corn plant response rating (crop injury, 0 = no effect, 100 = complete kill) at 31 g/ha (corn (Zea mays); [14]): 0%
Corn plant response rating (crop injury, 0 = no effect, 100 = complete kill) at 62 g/ha (corn (Zea mays); [14]): 20%
Corn plant response rating (crop injury, 0 = no effect, 100 = complete kill) at 125 g/ha (corn (Zea mays); pre-emergence, Preemergence, scale 0 to 100, read-out: Plant response rating, Corn): 40%
pest or weed control at 31 g/ha [5, 15]: 55%
pest or weed control at 62 g/ha [5, 15]: 90%
pest or weed control at 125 g/ha ([5]; post-emergence, Postemergence, scale 0 to 100 (0 no effect, 100 complete control), read-out: Crabgrass plant response rating): 90%
pest or weed control at 250 g/ha ([5]; post-emergence, Postemergence, 250 g ai/ha, scale 0 to 100, read-out: Plant response rating, Crabgrass): 90%
pest or weed control at 16 g/ha ([5]; pre-emergence, Preemergence, 16 g ai/ha, scale 0 to 100, 0 no effect, 100 complete control, read-out: Plant response rating, Crabgrass): 0%
pest or weed control at 31 g/ha [5, 16]: 5%
pest or weed control at 62 g/ha [5, 16]: 40%
pest or weed control at 125 g/ha ([5]; pre-emergence, Preemergence, scale 0 to 100, read-out: Plant response rating, Crabgrass): 45%
pest or weed control at 31 g/ha ([6]; 31 g ai/ha): 0%
pest or weed control at 62 g/ha ([6]; 62 g ai/ha): 0%
